Reference: US20070099877A1, “N-aryl-thienopyrimidin-4-amines and analogs as activators of caspases and inducers of apoptosis and the use thereof” (Cytovia, Inc., priority 2005, published 2007)
Counter-ions that a name gives are not always drawn. Like-named read-outs stand apart in the source and are kept apart here.

Assays:
Type in all cases: cell-based
[1] = test system: human colon carcinoma cell line HCT116; assay: Caspase cascade activation in HCT116 cells; details: Homo sapiens, HCT-116, 48 h, read-out: Caspase activation Potency EC50 HCT116 (48 h)
Protocol: (§1) Human breast cancer cell line T-47D, human lung cancer cell line H1299, human hepatocellular carcinoma cell line SNU398, human colon carcinoma cell line HCT116 were grown according to media component mixtures designated by American Type Culture Collection+10% FCS (Invitrogen Corporation), in a 5% CO2-95% humidity incubator at 37° C. T-47D and H1299 cells were maintained at a cell density between 50 and 80% confluency at a cell density of 0.1 to 0.6×10^6 cells/mL. Cells were harvested at 600×g and resuspended at 0.65×10^6 cells/mL into appropriate media+10% FCS. An aliquot of 22.5 μL of cells was added to a well of a 384-well microtiter plate containing 2.5 μL of a 10% DMSO in RPMI-1640 media solution containing 0.16 to 100 μM of N-(2,5-dimethoxyphenyl)-2-methylthieno[3,2-d]pyrimidin-4-amine or other test compound (0.016 to 10 μM final). An aliquot of 22.5 μL of cells was added to a well of a 384-well microtiter plate containing 2.5 μL of a 10% DMSO in RPMI-1640 media solution without test compound as the control sample. The samples were mixed by agitation and then incubated at 37° C. for 24 h or 48 h in a 5% CO2-95% humidity incubator. After incubation, the samples were removed from the incubator and 25 μL of a solution containing 14 μM of N-(Ac-DEVD)-N′-ethoxycarbonyl-R110 (SEQ ID NO.:1) fluorogenic substrate (Cytovia, Inc.; WO99/18856), 20% sucrose (Sigma), 20 mM DTT (Sigma), 200 mM NaCl (Sigma), 40 mM Na PIPES buffer pH 7.2 (Sigma), and 500 μg/mL lysolecithin (Calbiochem) was added. The samples were mixed by agitation and incubated at room temperature. Using a fluorescent plate reader (Model SPECTRAfluor Plus, Tecan), an initial reading (T=0) was made approximately 1-2 min after addition of the substrate solution, employing excitation at 485 nm and emission at 530 nm, to determine the background fluorescence of the control sample. After the 3 h incubation, the samples were read for fluorescence as above (T=3 h).
(§2) The Relative Fluorescence Unit values (RFU) were used to calculate the sample readings as follows: RFU(T=3h)−Control RFU(T=O)=Net RFU(T=3h)
(§3) The activity of caspase cascade activation was determined by the ratio of the net RFU value for N-(2,5-dimethoxyphenyl)-2-methylthieno[3,2-d]pyrimidin-4-amine or other test compound to that of control samples. The EC50 (nM) was determined by a sigmoidal dose-response calculation (Prism 3.0, GraphPad Software Inc.).

[2] = test system: human breast cancer cell line T-47D; assay: Caspase cascade activation (DEVD-R110 fluorogenic substrate) in T-47D cells; details: Homo sapiens, T47D
Protocol: as §1, §2, §3

[3] = test system: human hepatocellular carcinoma cell line SNU398; assay: Caspase cascade activation in SNU398 cells; details: Homo sapiens, SNU-398, 48 h, read-out: Caspase activation Potency EC50 SNU398 (48 h)
Protocol: as §1, §2, §3

[4] = test system: human lung cancer cell line H1299; assay: Caspase cascade activation in H1299 cells; details: NCI-H1299, 24 h, read-out: Caspase activation Potency EC50 H1299 (24 h)
Protocol: as §1, §2, §3

[5] = 24 h, T47D cells, 24 h, read-out: Caspase activation Potency EC50 T47D (24 h)
[6] = 48 h, T-47D cells, 48 h, read-out: Caspase activation Potency EC50 T-47D (48 h)

EC50 [1] | EC50 [2, 5] | EC50 [2, 6] | EC50 [3] | EC50 [4] | SMILES
> 10 µM | > 10 µM | > 10 µM | > 10 µM | > 10 µM | COc1ccc(C(=O)O)cc1Nc1ncnc2ccsc12 [Example 41, 4-Methoxy-3-(thieno[3,2-d]pyrimidin-4-ylamino)-benzoic acid]
> 10 µM | > 10 µM | 0.873 µM | 5.18 µM | 5.09 µM | CCOc1ccc(OCC)c(Nc2ncnc3ccsc23)c1 [Example 36, N-(2,5-Diethoxyphenyl)thieno[3,2-d]pyrimidin-4-amine]

The remaining lines, values behind:

SMILES | EC50 [1] | EC50 [2, 5] | EC50 [2, 6] | EC50 [3] | EC50 [4]
COc1ccc(C)cc1Nc1ncnc2ccsc12 [Example 31, N-(2-Methoxy-5-methylphenyl)thieno[3,2-d]pyrimidin-4-amine] | > 10 µM | 0.417 µM | 0.519 µM | > 10 µM | > 10 µM
COc1ccc(OC)c(Nc2ncnc3sc(C)cc23)c1 [Example 28, N-(2,5-Dimethoxyphenyl)-6-methylthieno[2,3-d]pyrimidin-4-amine hydrochloride] | > 10 µM | 0.422 µM | 0.542 µM | > 10 µM | > 10 µM
COc1ccc(Nc2ncnc3ccsc23)c(OC)c1 [Example 8, N-(2,4-Dimethoxyphenyl)thieno[3,2-d]pyrimidin-4-amine hydrochloride] | > 10 µM | > 10 µM | > 10 µM | > 10 µM | > 10 µM
COc1ccc(Nc2ncnc3ccsc23)cc1 [Example 19, N-(4-Methoxyphenyl)thieno[3,2-d]pyrimidin-4-amine hydrochloride] | > 10 µM | > 10 µM | > 10 µM | > 10 µM | > 10 µM
